Experimental data taken from patent US20250320189A1, “NEW DERIVATIVES FOR TREATING TRPM3 MEDIATED DISORDERS” (Katholieke Universiteit Leuven, priority 2022, published 2025).
pIC50: −log10 of the molar value.

The compounds below were run against T1, mouse TRPM3α2 (mTRPM3) ion channel (Mus musculus, UniProt J9SQF3) (assay: Monitoring the TRPM3 ion channel driven Ca2+ uptake (Fluo-4 AM assay)). Settings: mTRPM3alpha2 overexpressing flip-in HEK293 cells, stimulated with Pregnenolone sulfate (PS) 50 μM.
T1 construct: expressed in transfected cells; host or cells: flip-in (Flp-In) HEK293
T1 sequence (J9SQF3 1-1709 isoform J9SQF3-12): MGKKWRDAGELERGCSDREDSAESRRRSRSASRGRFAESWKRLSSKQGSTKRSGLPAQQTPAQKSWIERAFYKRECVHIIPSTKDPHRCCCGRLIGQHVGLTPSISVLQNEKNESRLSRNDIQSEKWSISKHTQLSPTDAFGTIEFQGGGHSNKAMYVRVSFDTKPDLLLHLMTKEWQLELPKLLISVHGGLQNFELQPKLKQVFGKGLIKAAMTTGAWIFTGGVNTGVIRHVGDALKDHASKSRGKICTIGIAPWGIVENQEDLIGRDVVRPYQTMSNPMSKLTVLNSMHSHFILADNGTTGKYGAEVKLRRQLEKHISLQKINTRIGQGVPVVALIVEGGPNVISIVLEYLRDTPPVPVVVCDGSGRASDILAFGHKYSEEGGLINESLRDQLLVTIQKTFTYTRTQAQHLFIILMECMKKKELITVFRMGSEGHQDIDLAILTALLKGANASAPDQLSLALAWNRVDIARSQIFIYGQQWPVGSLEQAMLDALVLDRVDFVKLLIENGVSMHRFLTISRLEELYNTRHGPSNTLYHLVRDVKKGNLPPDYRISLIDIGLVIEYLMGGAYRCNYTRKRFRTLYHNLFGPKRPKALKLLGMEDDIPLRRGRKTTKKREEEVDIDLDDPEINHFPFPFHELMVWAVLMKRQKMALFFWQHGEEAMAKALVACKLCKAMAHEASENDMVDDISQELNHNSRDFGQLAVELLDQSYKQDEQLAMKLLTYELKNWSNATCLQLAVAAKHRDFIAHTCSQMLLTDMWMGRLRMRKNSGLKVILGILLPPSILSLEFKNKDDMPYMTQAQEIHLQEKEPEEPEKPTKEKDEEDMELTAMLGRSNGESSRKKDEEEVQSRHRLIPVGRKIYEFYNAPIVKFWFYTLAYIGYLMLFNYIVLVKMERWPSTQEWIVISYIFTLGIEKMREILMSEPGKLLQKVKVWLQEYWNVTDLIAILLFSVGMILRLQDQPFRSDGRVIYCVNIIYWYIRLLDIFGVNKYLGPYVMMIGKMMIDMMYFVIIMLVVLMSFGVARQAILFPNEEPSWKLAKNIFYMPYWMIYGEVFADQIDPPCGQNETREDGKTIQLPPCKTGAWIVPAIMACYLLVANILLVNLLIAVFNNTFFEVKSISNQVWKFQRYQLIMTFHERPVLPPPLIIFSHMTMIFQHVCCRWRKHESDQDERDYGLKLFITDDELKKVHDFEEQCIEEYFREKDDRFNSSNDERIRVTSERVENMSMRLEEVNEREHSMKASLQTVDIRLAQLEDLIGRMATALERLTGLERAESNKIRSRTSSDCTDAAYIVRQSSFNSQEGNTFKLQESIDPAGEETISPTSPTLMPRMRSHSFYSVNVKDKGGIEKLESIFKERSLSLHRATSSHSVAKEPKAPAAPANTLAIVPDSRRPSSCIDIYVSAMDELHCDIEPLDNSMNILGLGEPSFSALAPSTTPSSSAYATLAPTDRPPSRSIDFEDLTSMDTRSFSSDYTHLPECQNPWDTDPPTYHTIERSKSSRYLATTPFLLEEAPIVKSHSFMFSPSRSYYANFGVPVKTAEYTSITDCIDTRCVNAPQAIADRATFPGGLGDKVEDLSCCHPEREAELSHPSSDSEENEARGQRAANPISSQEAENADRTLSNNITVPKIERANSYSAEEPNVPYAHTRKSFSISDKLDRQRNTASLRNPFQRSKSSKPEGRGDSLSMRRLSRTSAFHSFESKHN
Assay type: cell-based
Protocol: In order to monitor the inhibition of the mouse TRPM3α2 (mTRPM3) ion channel by the compounds of the invention, a cellular system making use of an mTRPM3alpha2 or hTRPM3 overexpressing cell line (flip-in HEK293) was used. The TRPM3 channel was stimulated/opened with Pregnenolone sulfate (PS) (50 μM) which results in Ca^2+ influx.
For mTRPM3, the intracellular Ca^2+ was measured with a Calcium responsive dye, Fluor-4 AMV ester (Invitrogen). Cells were cultured until a confluence of 80-90%, washed with Versene (Invitrogen) and detached from the surface by a short incubation with 0.05% Trypsin (Invitrogen). The trypsination process was stopped by the addition of complete cell culture medium (DMEM, glutamax, 10% FCS, NEAA,Pen-Strep). Cells were collected and resuspended in Krebs buffer without Calcium at RT.
Prior the cell seeding (±2000 cells/well into a black, 384 well plate (Greiner)) the diluted compound was added in the assay plate, together with the PS dissolved in Krebs buffer containing Calcium. […] Directly after cell addition the plates were read on an Envision fluorescence reader (PerkinElmer) by an Excitation of 485 nm and emission at 535 nm.
Channel inhibition was calculated compared to a non-PS stimulated control versus a condition stimulated with PS (50 μM) with vehicle. The ability of the compounds of the invention to inhibit this activity was determined as: Percentage inhibition=[1−((RFU determined for sample with test compound present−RFU determined for sample with positive control inhibitor) divided by (RFU determined in the presence of vehicle−RFU determined for sample with positive control inhibitor))]*100.
The activities of the Example compounds tested are depicted in the table below. The activity ranges A, B and C refer to IC50 values in the Fluo-4 AM assay as follows: “A”: IC50<1 μM; “B”: 1 μM≤IC50≤20 μM and “C”: IC50>20 μM

| Compound | pIC50 |
| --- | --- |
| Cc1oc2ccc(OCC34CC(C)(C3)C4)cc2c1C(=O)NC(C)(CO)C(N)=O (single isomer, unassigned) [Cpd 052 - En1, 3-hydroxy-2-methyl-2-{[2-methyl-5-({3-methylbicyclo[1.1.1]pentan-1-yl}methoxy)-1-benzofuran-3-yl]formamido}propenamide] | > 6.00 |
| Cc1oc2ccc(OCC34CC(C)(C3)C4)cc2c1C(=O)NC(C)(CO)C(N)=O (single isomer, unassigned) [Cpd 052 - En2, 3-hydroxy-2-methyl-2-{[2-methyl-5-({3-methylbicyclo[1.1.1]pentan-1-yl}methoxy)-1-benzofuran-3-yl]formamido}propenamide] | > 6.00 |
| Cc1oc2ccc(OCC3CCC3)cc2c1C(=O)NC(C)(CO)C(N)=O (single isomer, unassigned) [Cpd 053 - En1, 2-{[5-(cyclobutylmethoxy)-2-methyl-1-benzofuran-3-yl]formamido}-3-hydroxy-2-methylpropanamide] | > 6.00 |
| Cc1oc2ccc(OCC3CCC3)cc2c1C(=O)NC(C)(CO)C(N)=O (single isomer, unassigned) [Cpd 053 - En2, 2-{[5-(cyclobutylmethoxy)-2-methyl-1-benzofuran-3-yl]formamido}-3-hydroxy-2-methylpropanamide] | > 6.00 |
| Cc1oc2ccc(OCC3CC(F)(F)C3)cc2c1C(=O)NC(C)(CO)C(N)=O (single isomer, unassigned) [Cpd 054 - En1, 2-({5-[(3,3-difluorocyclobutyl)methoxy]-2-methyl-1-benzofuran-3-yl}formamido)-3-hydroxy-2-methylpropanamide] | 4.70 to 6.00 |
| Cc1oc2ccc(OCC3CC(F)(F)C3)cc2c1C(=O)NC(C)(CO)C(N)=O (single isomer, unassigned) [Cpd 054 - En2, 2-({5-[(3,3-difluorocyclobutyl)methoxy]-2-methyl-1-benzofuran-3-yl}formamido)-3-hydroxy-2-methylpropanamide] | > 6.00 |
| Cc1oc2ccc(OCC3CC3)cc2c1C(=O)NC1CCCNC1=O (single isomer, unassigned) [Cpd 055 - En1, 5-(cyclopropylmethoxy)-2-methyl-N-(2-oxopiperidin-3-yl)-1-benzofuran-3-carboxamide] | > 6.00 |
| Cc1oc2ccc(OCC3CC3)cc2c1C(=O)NC1CCCNC1=O (single isomer, unassigned) [Cpd 055 - En2, 5-(cyclopropylmethoxy)-2-methyl-N-(2-oxopiperidin-3-yl)-1-benzofuran-3-carboxamide] | 4.70 to 6.00 |
| Cc1oc2ccc(OCC3CC3)cc2c1C(=O)NC(CO)C(N)C(F)(F)F (single isomer, unassigned) [Cpd 056 - En1, N-[(2)-3-amino-4,4,4-trifluoro-1-hydroxybutan-2-yl]-5-(cyclopropylmethoxy)-2-methyl-1-benzofuran-3-carboxamide] | 4.70 to 6.00 |
| Cc1oc2ccc(OCC3CC3)cc2c1C(=O)NC(CO)C(N)C(F)(F)F (single isomer, unassigned) [Cpd 056 - En2, N-[(2)-3-amino-4,4,4-trifluoro-1-hydroxybutan-2-yl]-5-(cyclopropylmethoxy)-2-methyl-1-benzofuran-3-carboxamide] | > 6.00 |
| Cc1oc2ccc(OCC3CC3)cc2c1C(=O)NC(CO)C(N)C(F)(F)F (single isomer, unassigned) [Cpd 056 - En3, N-[(2)-3-amino-4,4,4-trifluoro-1-hydroxybutan-2-yl]-5-(cyclopropylmethoxy)-2-methyl-1-benzofuran-3-carboxamide] | > 6.00 |
| Cc1oc2ccc(OCC3CC3)cc2c1C(=O)NC(CO)C(N)C(F)(F)F (single isomer, unassigned) [Cpd 056 - En4, N-[(2)-3-amino-4,4,4-trifluoro-1-hydroxybutan-2-yl]-5-(cyclopropylmethoxy)-2-methyl-1-benzofuran-3-carboxamide] | 4.70 to 6.00 |
| Cc1oc2ccc(OCC3CC3(F)F)cc2c1C(=O)NC(CO)CC(F)(F)F (single isomer, unassigned) [Cpd 057 - En1, 5-[(2,2-difluorocyclopropyl)methoxy]-2-methyl-N-(4,4,4-trifluoro-1-hydroxybutan-2-yl)-1-benzofuran-3-carboxamide] | > 6.00 |
| Cc1oc2ccc(OCC3CC3(F)F)cc2c1C(=O)NC(CO)CC(F)(F)F (single isomer, unassigned) [Cpd 057 - En2, 5-[(2,2-difluorocyclopropyl)methoxy]-2-methyl-N-(4,4,4-trifluoro-1-hydroxybutan-2-yl)-1-benzofuran-3-carboxamide] | > 6.00 |
| Cc1oc2ccc(OCC3CC3(F)F)cc2c1C(=O)NC(CO)CC(F)(F)F (single isomer, unassigned) [Cpd 057 - En3, 5-[(2,2-difluorocyclopropyl)methoxy]-2-methyl-N-(4,4,4-trifluoro-1-hydroxybutan-2-yl)-1-benzofuran-3-carboxamide] | 4.70 to 6.00 |
| Cc1oc2ccc(OCC3CC3(F)F)cc2c1C(=O)NC(CO)CC(F)(F)F (single isomer, unassigned) [Cpd 057 - En4, 5-[(2,2-difluorocyclopropyl)methoxy]-2-methyl-N-(4,4,4-trifluoro-1-hydroxybutan-2-yl)-1-benzofuran-3-carboxamide] | 4.70 to 6.00 |
| Cc1oc2ccc(OC[C@H]3C[C@@H](C)C3)cc2c1C(=O)NC(C)(CO)C(N)=O (single isomer, unassigned) [Cpd 058 - En1, Cis-3-hydroxy-2-methyl-2-({2-methyl-5-[(3-methylcyclobutyl)methoxy]-1-benzofuran-3-yl}formamido)propenamide] | > 6.00 |
| Cc1oc2ccc(OC[C@H]3C[C@@H](C)C3)cc2c1C(=O)NC(C)(CO)C(N)=O (single isomer, unassigned) [Cpd 058 - En2, Cis-3-hydroxy-2-methyl-2-({2-methyl-5-[(3-methylcyclobutyl)methoxy]-1-benzofuran-3-yl}formamido)propenamide] | 4.70 to 6.00 |
| Cc1oc2ccc(OC[C@H]3C[C@H](C)C3)cc2c1C(=O)NC(C)(CO)C(N)=O (single isomer, unassigned) [Cpd 059 - En1, Trans-3-hydroxy-2-methyl-2-({2-methyl-5-[(3-methylcyclobutyl)methoxy]-1-benzofuran-3-yl}formamido)propenamide] | > 6.00 |
| Cc1oc2ccc(OC[C@H]3C[C@H](C)C3)cc2c1C(=O)NC(C)(CO)C(N)=O (single isomer, unassigned) [Cpd 059 - En2, Trans-3-hydroxy-2-methyl-2-({2-methyl-5-[(3-methylcyclobutyl)methoxy]-1-benzofuran-3-yl}formamido)propenamide] | 4.70 to 6.00 |
| COCC(C)(CO)NC(=O)c1c(C)oc2ccc(OCC3(C(F)(F)F)CC3)cc12 (single isomer, unassigned) [Cpd 060 - En1, N-(1-hydroxy-3-methoxy-2-methylpropan-2-yl)-2-methyl-5-{[1-(trifluoromethyl)cyclopropyl]methoxy}-1-benzofuran-3-carboxamide] | 4.70 to 6.00 |
| COCC(C)(CO)NC(=O)c1c(C)oc2ccc(OCC3(C(F)(F)F)CC3)cc12 (single isomer, unassigned) [Cpd 060 - En2, N-(1-hydroxy-3-methoxy-2-methylpropan-2-yl)-2-methyl-5-{[1-(trifluoromethyl)cyclopropyl]methoxy}-1-benzofuran-3-carboxamide] | > 6.00 |
| Cc1oc2ccc(OCC3(C(F)(F)F)CC3)cc2c1C(=O)NC1(C)CCCNC1=O (single isomer, unassigned) [Cpd 061 - En1, 2-methyl-N-(3-methyl-2-oxopiperidin-3-yl)-5-{[1-(trifluoromethyl)cyclopropyl]methoxy}-1-benzofuran-3-carboxamide] | < 4.70 |
| Cc1oc2ccc(OCC3(C(F)(F)F)CC3)cc2c1C(=O)NC1(C)CCCNC1=O (single isomer, unassigned) [Cpd 061 - En2, 2-methyl-N-(3-methyl-2-oxopiperidin-3-yl)-5-{[1-(trifluoromethyl)cyclopropyl]methoxy}-1-benzofuran-3-carboxamide] | 4.70 to 6.00 |
| Cc1oc2ccc(OCC3CCCC3)cc2c1C(=O)NC(C)(CO)C(N)=O (single isomer, unassigned) [Cpd 062 - En1, 2-{[5-(cyclopentylmethoxy)-2-methyl-1-benzofuran-3-yl]formamido}-3-hydroxy-2-methylpropanamide] | > 6.00 |
| Cc1oc2ccc(OCC3CCCC3)cc2c1C(=O)NC(C)(CO)C(N)=O (single isomer, unassigned) [Cpd 062 - En2, 2-{[5-(cyclopentylmethoxy)-2-methyl-1-benzofuran-3-yl]formamido}-3-hydroxy-2-methylpropanamide] | > 6.00 |
| Cc1oc2ccc(OCC3CC3)cc2c1C(=O)N[C@@H](CO)C(N)=O [Cpd 001, (2S)-2-{[5-(cyclopropylmethoxy)-2-methyl-1-benzofuran-3-yl]formamido}-3-hydroxypropanamide] | > 6.00 |
